Assay: xn = mol fraction of the nth substance listed

CCCCCC[n+]1ccn(C)c1.O=[N+]([O-])[O-] + CC(C)O
viscosity [mPa·s], 100 kPa
Conditions | 293.15 K | 298.15 K | 303.15 K | 308.15 K | 313.15 K | 318.15 K | 323.15 K
x1 = 0.0817 | 6.79 | 5 | 3.85 | 2.97 | 2.39 | 2.01 | 1.65
x1 = 0.1594 | 16 | 11.18 | 7.97 | 5.99 | 4.67 | 3.68 | 2.88
x1 = 0.2402 | 32 | 23 | 17 | 12.69 | 9.5 | 7.25 | 5.63
x1 = 0.3493 | 66 | 47.7 | 34 | 26.9 | 21 | 16.7 | 12.75
x1 = 0.4408 | 111 | 79.5 | 55.4 | 43.2 | 34.4 | 27.2 | 21.3
x1 = 0.5609 | 187 | 136.6 | 91 | 70 | 55.8 | 43.5 | 34
x1 = 0.6502 | 266 | 193 | 122.4 | 94.1 | 74.7 | 58.3 | 44.5
x1 = 0.7417 | 363 | 265 | 164.3 | 123.7 | 96 | 75.4 | 58
x1 = 0.8518 | 505 | 372 | 232 | 168.8 | 128.2 | 101.2 | 78.6
x1 = 0.9396 | 664 | 467 | 306 | 218 | 160.5 | 124 | 96.7
x1 = 1 | 804 | 545 | 369 | 258 | 186 | 140.2 | 110.9

CCOS(=O)(=O)[O-].CC[N+]1(C)CCCCC1 + O
101 kPa
Conditions | viscosity [mPa·s]
298.15 K, x2 = 0.1867 | 690
298.15 K, x2 = 0.5338 | 97
298.15 K, x2 = 0.894 | 7.4
303.15 K, x2 = 0.894 | 6.2
308.15 K, x2 = 0 | 800
308.15 K, x2 = 0.4417 | 92
308.15 K, x2 = 0.8593 | 7.7
313.15 K, x2 = 0.4417 | 71
313.15 K, x2 = 0.8593 | 6.5
318.15 K, x2 = 0.3409 | 90
323.15 K, x2 = 0.2704 | 93
323.15 K, x2 = 0.7839 | 8.8
328.15 K, x2 = 0.2704 | 73
328.15 K, x2 = 0.7839 | 7.5
333.15 K, x2 = 0.1867 | 80
333.15 K, x2 = 0.7357 | 8.6
338.15 K, x2 = 0.1867 | 65
338.15 K, x2 = 0.7357 | 7.5
343.15 K, x2 = 0 | 100
343.15 K, x2 = 0.7357 | 6.8

CCOS(=O)(=O)[O-].CC[n+]1ccn(C)c1 + O
Conditions | electrical conductivity [S/m] | viscosity [mPa·s]
283.15 K, 101 kPa, x2 = 0.1966 | – | 136.9
283.15 K, 101 kPa, x2 = 0.6124 | – | 32.65
288.15 K, 100 kPa, x1 = 0.0005131 | – | 1.163
288.15 K, 100 kPa, x1 = 0.0008362 | – | 1.177
288.15 K, 100 kPa, x1 = 0.001227 | – | 1.193
288.15 K, 100 kPa, x1 = 0.002025 | – | 1.227
288.15 K, 100 kPa, x1 = 0.002516 | – | 1.25
288.15 K, 100 kPa, x1 = 0.003482 | – | 1.292
288.15 K, 100 kPa, x1 = 0.00456 | – | 1.342
288.15 K, 100 kPa, x1 = 0.006613 | – | 1.426
288.15 K, 100 kPa, x1 = 0.008007 | – | 1.491
288.15 K, 100 kPa, x1 = 0.009969 | – | 1.577
288.15 K, 100 kPa, x1 = 0.01406 | – | 1.777
288.15 K, 100 kPa, x1 = 0.0162 | – | 1.889
293.15 K, 100 kPa, x1 = 0.0005131 | – | 1.012
293.15 K, 100 kPa, x1 = 0.0008362 | – | 1.024
293.15 K, 100 kPa, x1 = 0.002516 | – | 1.092
293.15 K, 100 kPa, x1 = 0.003482 | – | 1.129
293.15 K, 100 kPa, x1 = 0.00456 | – | 1.171
293.15 K, 100 kPa, x1 = 0.006613 | – | 1.247
293.15 K, 100 kPa, x1 = 0.008007 | – | 1.295
293.15 K, 100 kPa, x1 = 0.009969 | – | 1.365
293.15 K, 100 kPa, x1 = 0.01406 | – | 1.508
293.15 K, 100 kPa, x1 = 0.0162 | – | 1.597
293.15 K, 101 kPa, x2 = 0.0023 | – | 133.9
293.15 K, 101 kPa, x2 = 0.1225 | – | 99.1
298.15 K, 100 kPa, x1 = 0.0005131 | – | 0.9026
298.15 K, 100 kPa, x1 = 0.0008362 | – | 0.9136
298.15 K, 100 kPa, x1 = 0.001227 | – | 0.929
298.15 K, 100 kPa, x1 = 0.002025 | – | 0.9545
298.15 K, 100 kPa, x1 = 0.002516 | – | 0.9707
298.15 K, 100 kPa, x1 = 0.003482 | – | 1.004
298.15 K, 100 kPa, x1 = 0.00456 | – | 1.039
298.15 K, 100 kPa, x1 = 0.006613 | – | 1.1
298.15 K, 100 kPa, x1 = 0.008007 | – | 1.141
298.15 K, 100 kPa, x1 = 0.009969 | – | 1.201
298.15 K, 100 kPa, x1 = 0.01406 | – | 1.322
298.15 K, 100 kPa, x1 = 0.0162 | – | 1.392
298.15 K, 101 kPa, x1 = 0.003 | 0.74 | –
298.15 K, 101 kPa, x1 = 0.047 | 4 | –
298.15 K, 101 kPa, x2 = 0.1608 | – | 70
298.15 K, 101.3 kPa, x1 = 0.01871 | 3.26 | –
298.15 K, 101.3 kPa, x2 = 0 | 0.398 | –
298.15 K, 101.3 kPa, x2 = 0.8489 | 3.85 | –
298.15 K, 101.3 kPa, x2 = 0.9291 | 4.45 | –
298.15 K, 101.3 kPa, x2 = 0.9684 | 3.95 | –
298.15 K, 101.3 kPa, x2 = 0.9752 | 3.66 | –
303.15 K, 100 kPa, x1 = 0.0005131 | – | 0.8072
303.15 K, 100 kPa, x1 = 0.0008362 | – | 0.8175
303.15 K, 100 kPa, x1 = 0.001227 | – | 0.8288
303.15 K, 100 kPa, x1 = 0.002025 | – | 0.8498
303.15 K, 100 kPa, x1 = 0.002516 | – | 0.8628
303.15 K, 100 kPa, x1 = 0.003482 | – | 0.8878
303.15 K, 100 kPa, x1 = 0.00456 | – | 0.9163
303.15 K, 100 kPa, x1 = 0.006613 | – | 0.9752
303.15 K, 100 kPa, x1 = 0.008007 | – | 1.01
303.15 K, 100 kPa, x1 = 0.01406 | – | 1.156
308.15 K, 100 kPa, x1 = 0.0005131 | – | 0.7285
308.15 K, 100 kPa, x1 = 0.0008362 | – | 0.7368
308.15 K, 100 kPa, x1 = 0.001227 | – | 0.7453
308.15 K, 100 kPa, x1 = 0.002025 | – | 0.7648
308.15 K, 100 kPa, x1 = 0.002516 | – | 0.774
308.15 K, 100 kPa, x1 = 0.003482 | – | 0.7947
308.15 K, 100 kPa, x1 = 0.00456 | – | 0.8202
308.15 K, 100 kPa, x1 = 0.006613 | – | 0.8682
308.15 K, 100 kPa, x1 = 0.008007 | – | 0.8953
308.15 K, 100 kPa, x1 = 0.009969 | – | 0.9332
308.15 K, 100 kPa, x1 = 0.01406 | – | 1.02
308.15 K, 100 kPa, x1 = 0.0162 | – | 1.066
313.15 K, 100 kPa, x1 = 0.0005131 | – | 0.6616
313.15 K, 100 kPa, x1 = 0.0008362 | – | 0.669
313.15 K, 100 kPa, x1 = 0.001227 | – | 0.6761
313.15 K, 100 kPa, x1 = 0.002025 | – | 0.6922
313.15 K, 100 kPa, x1 = 0.002516 | – | 0.7008
313.15 K, 100 kPa, x1 = 0.003482 | – | 0.7189
313.15 K, 100 kPa, x1 = 0.00456 | – | 0.7368
313.15 K, 100 kPa, x1 = 0.006613 | – | 0.7779
313.15 K, 100 kPa, x1 = 0.008007 | – | 0.8031
313.15 K, 100 kPa, x1 = 0.009969 | – | 0.8366
313.15 K, 100 kPa, x1 = 0.01406 | – | 0.9075
313.15 K, 100 kPa, x1 = 0.0162 | – | 0.9429
313.15 K, 101 kPa, x1 = 0.003 | 0.97 | –
313.15 K, 101 kPa, x1 = 0.008 | 2.5 | –
313.15 K, 101 kPa, x1 = 0.013 | 3.4 | –
313.15 K, 101 kPa, x1 = 0.019 | 3.9 | –
313.15 K, 101 kPa, x1 = 0.151 | 4.7 | –
313.15 K, 101 kPa, x1 = 0.642 | 1.4 | –
318.15 K, 100 kPa, x1 = 0.0005131 | – | 0.6014
318.15 K, 100 kPa, x1 = 0.0008362 | – | 0.6088
318.15 K, 100 kPa, x1 = 0.001227 | – | 0.6154
318.15 K, 100 kPa, x1 = 0.002025 | – | 0.6285
318.15 K, 100 kPa, x1 = 0.002516 | – | 0.6341
318.15 K, 100 kPa, x1 = 0.003482 | – | 0.6498
318.15 K, 100 kPa, x1 = 0.00456 | – | 0.6693
318.15 K, 100 kPa, x1 = 0.006613 | – | 0.6989
318.15 K, 100 kPa, x1 = 0.008007 | – | 0.7189
318.15 K, 100 kPa, x1 = 0.009969 | – | 0.7489
318.15 K, 100 kPa, x1 = 0.01406 | – | 0.8092
318.15 K, 100 kPa, x1 = 0.0162 | – | 0.8249
323.15 K, 100 kPa, x1 = 0.0005131 | – | 0.5543
323.15 K, 100 kPa, x1 = 0.0008362 | – | 0.5575
323.15 K, 100 kPa, x1 = 0.001227 | – | 0.5629
323.15 K, 100 kPa, x1 = 0.002025 | – | 0.5726
323.15 K, 100 kPa, x1 = 0.002516 | – | 0.5798
323.15 K, 100 kPa, x1 = 0.003482 | – | 0.592
323.15 K, 100 kPa, x1 = 0.00456 | – | 0.6071
323.15 K, 100 kPa, x1 = 0.006613 | – | 0.6309
323.15 K, 100 kPa, x1 = 0.008007 | – | 0.6496
323.15 K, 100 kPa, x1 = 0.009969 | – | 0.672
323.15 K, 100 kPa, x1 = 0.01406 | – | 0.7192
323.15 K, 100 kPa, x1 = 0.0162 | – | 0.7349
323.15 K, 101 kPa, x2 = 0.427 | – | 14.57
328.15 K, 100 kPa, x1 = 0.0005131 | – | 0.5096
328.15 K, 100 kPa, x1 = 0.0008362 | – | 0.5125
328.15 K, 100 kPa, x1 = 0.001227 | – | 0.5161
328.15 K, 100 kPa, x1 = 0.002025 | – | 0.5251
328.15 K, 100 kPa, x1 = 0.002516 | – | 0.5307
328.15 K, 100 kPa, x1 = 0.003482 | – | 0.5404
328.15 K, 100 kPa, x1 = 0.00456 | – | 0.5521
328.15 K, 100 kPa, x1 = 0.006613 | – | 0.5713
343.15 K, 101 kPa, x2 = 0.0023 | – | 19.63
343.15 K, 101 kPa, x2 = 0.1966 | – | 14.47
343.15 K, 101 kPa, x2 = 0.427 | – | 8.918

Source: the CheMixHub ionic liquid set
